Where only a bound is given, the exact number is not on record here.

Test in all cases: Whole blood assay, LPS stimulation, MSD cytokine detection
One assay concerns IL-1β. In kind it is cell-based, bovine. Particulars: fresh whole bovine blood, LPS stimulation; drug concentration giving overstimulation (OS) of IL-1β. On the procedure:
(§1) Compounds of the invention were evaluated against a positive control for their ability to inhibit LPS-induced IL-1p and TNF-α as an overall evaluation of relative potency and modulation of target pathways.
(§2) In the bovine whole blood in vitro screening assay the inhibition of TNFα as induced by stimulation by lipopolysaccharide (LPS) and as measured by half the maximal inhibitory concentration (IC50) is recognized as the primary biomarker of immunomodulation potency upon pretreatment with the compounds of the invention. IL-1β is a mediator of the inflammation response and is involved in a number of cellular activities including proliferation, differentiation and apoptosis. IL-1β is also released upon cellular stress or cytotoxicity or upon TLR stimulation. In the bovine whole blood assay the stimulation of IL-1β release upon increasing concentration of test compound is seen as a potential cellular toxicity signal as induced by the test compound. In order to estimate a therapeutic index from the in vitro assay a differential between the TNFα IC50 (immunomodulation potency) versus the perceived cellular toxicity concentration (IL-1β release or overstimulation) was utilized. […] As the in vitro assay index approaches 1 it is proposed that the balance between immunomodulation and cytotoxicity would be too narrow in order to achieve an efficacious dose in vivo.

The next assay deals with IL-6. In kind it is cell-based. The following applies: fresh whole bovine blood.
The next assay has as its system TNF-α. The assay is classed as cell-based. The following applies: fresh whole bovine blood. As for the experimental part: as §1, §2

`CC[C@H]1OC(=O)[C@H](C)[C@@H](O)[C@H](C)[C@@H](O[C@@H]2O[C@H](C)C[C@H](N(C)C(=O)N(C)C3CCC3)[C@H]2Oc2ccccc2)[C@](C)(O)C[C@@H](C)CN[C@H](C)[C@@H](O)[C@]1(C)O` [Example C-21]: the “IL-1ß OS of LPS” value in the assay on IL-1β amounted to 8 µM. In addition, the values for the 50% inhibitory concentration (IC50) in the assay on IL-6 and in the assay on TNF-α were 18 µM and 28 µM, respectively.

Turning to `CC[C@H]1OC(=O)[C@H](C)[C@@H](O)[C@H](C)[C@@H](O[C@@H]2O[C@H](C)C[C@H](N(C)C(=O)N(C)c3ncccn3)[C@H]2Oc2ccccc2)[C@](C)(O)C[C@@H](C)CN(C)[C@H](C)[C@@H](O)[C@]1(C)O` [Example C-22], the “IL-1ß OS of LPS” value in the assay on IL-1β worked out at 100 µM. Further, the IC50 (commonly the concentration that inhibits the measured activity by half) was 151 µM in the assay with IL-6 and 94 µM in the assay with TNF-α.

Turning to `CC[C@H]1OC(=O)[C@H](C)[C@@H](O)[C@H](C)[C@@H](O[C@@H]2O[C@H](C)C[C@H](N(C)C(=O)N(C)C)[C@H]2Oc2ccc(F)cc2C)[C@](C)(O)C[C@@H](C)CN[C@H](C)[C@@H](O)[C@]1(C)O` [Example C-25], the “IL-1ß OS of LPS” value in the assay on IL-1β worked out at 40 µM. The IC50 in the assay on IL-6 was 25 µM; in the assay on TNF-α, 59 µM.

In the case of `CC[C@H]1OC(=O)[C@H](C)[C@@H](O)[C@H](C)[C@@H](O[C@@H]2O[C@H](C)C[C@H](N(C)C(=O)N(C)c3ccccc3)[C@H]2Oc2ccc(Cl)nc2)[C@](C)(O)C[C@@H](C)CN[C@H](C)[C@@H](O)[C@]1(C)O` [Example C-33], the “IL-1ß OS of LPS” value with IL-1β amounted to 16 µM. Also, the values for the concentration for half-maximal inhibition (IC50) with IL-6 and with TNF-α were under 1 µM and 6 µM, respectively.

Consider `CC[C@H]1OC(=O)[C@H](C)[C@@H](O)[C@H](C)[C@@H](O[C@@H]2O[C@H](C)C[C@H](N(C)C(=O)N(C)c3ccccc3)[C@H]2Oc2ccc(OC)c(OC(C)C)c2)[C@](C)(O)C[C@@H](C)CN[C@H](C)[C@@H](O)[C@]1(C)O` [Example C-34], for which, in the assay with IL-1β, the “IL-1ß OS of LPS” value is 16 µM. The half-maximal inhibitory concentration (IC50) in the assay with IL-6 worked out at 16 µM; with TNF-α, 28 µM.

For the compound `CC[C@H]1OC(=O)[C@H](C)[C@@H](O)[C@H](C)[C@@H](O[C@@H]2O[C@H](C)C[C@H](N(C)C(=O)N(C)c3ccccc3)[C@H]2Oc2ccc3ncccc3c2)[C@](C)(O)C[C@@H](C)CN(C)[C@H](C)[C@@H](O)[C@]1(C)O` [Example C-35], the “IL-1ß OS of LPS” value with IL-1β is over 250 µM. Moreover, the IC50 in the assay on IL-6 stood at 18 µM; in the assay with TNF-α it was 12 µM.

In the case of `CCOc1cccc(O[C@H]2[C@H](O[C@@H]3[C@@H](C)[C@H](O)[C@@H](C)C(=O)O[C@H](CC)[C@@](C)(O)[C@H](O)[C@@H](C)NC[C@H](C)C[C@@]3(C)O)O[C@H](C)C[C@@H]2N(C)C(=O)N(C)c2ccc(N(C)C)cc2)c1` [Example C-36], the “IL-1ß OS of LPS” value in the assay on IL-1β amounted to 16 µM. The values for the IC50 with IL-6 and in the assay with TNF-α were 10 µM and 2 µM, respectively.

On to `CCOc1cccc(O[C@H]2[C@H](O[C@@H]3[C@@H](C)[C@H](O)[C@@H](C)C(=O)O[C@H](CC)[C@@](C)(O)[C@H](O)[C@@H](C)NC[C@H](C)C[C@@]3(C)O)O[C@H](C)C[C@@H]2N(C)C(=O)N(C)c2ccccc2)c1` [Example C-37], for which the “IL-1ß OS of LPS” value in the assay on IL-1β amounted to 16 µM. In addition, the concentration for half-maximal inhibition (IC50) was under 1 µM in the assay with IL-6 and 5 µM in the assay with TNF-α.

For `CC[C@H]1OC(=O)[C@H](C)[C@@H](O)[C@H](C)[C@@H](O[C@@H]2O[C@H](C)C[C@H](N(C)C(=O)N(C)c3ccccc3)[C@H]2Oc2ccccc2Cl)[C@](C)(O)C[C@@H](C)CN[C@H](C)[C@@H](O)[C@]1(C)O` [Example C-38], the “IL-1ß OS of LPS” value in the assay with IL-1β amounted to 16 µM. Besides, the values for the IC50 in the assay with IL-6 and in the assay on TNF-α were 26 µM and 5 µM, respectively.

Take `CC[C@H]1OC(=O)[C@H](C)[C@@H](O)[C@H](C)[C@@H](O[C@@H]2O[C@H](C)C[C@H](N(C)C(=O)N(C)c3ccccc3)[C@H]2Oc2cc(F)c(OC)c(F)c2)[C@](C)(O)C[C@@H](C)CN[C@H](C)[C@@H](O)[C@]1(C)O` [Example C-42]: the “IL-1ß OS of LPS” value in the assay on IL-1β is 16 µM. Besides, the half-inhibitory concentration (IC50) in the assay on IL-6 came out at 12 µM; with TNF-α it was 5 µM.

For `CC[C@H]1OC(=O)[C@H](C)[C@@H](O)[C@H](C)[C@@H](O[C@@H]2O[C@H](C)C[C@H](N(C)C(=O)N(C)c3ccc(C#N)cc3)[C@H]2Oc2ccccc2Cl)[C@](C)(O)C[C@@H](C)CN[C@H](C)[C@@H](O)[C@]1(C)O` [Example C-43], the “IL-1ß OS of LPS” value in the assay with IL-1β was 16 µM. In addition, the values for the IC50 in the assay with IL-6 and with TNF-α were 32 µM and 21 µM, respectively.

As for `CC[C@H]1OC(=O)[C@H](C)[C@@H](O)[C@H](C)[C@@H](O[C@@H]2O[C@H](C)C[C@H](N(C)C(=O)N(C)c3ccccc3)[C@H]2Oc2cc(F)c(OC)c(F)c2)[C@](C)(O)C[C@@H](C)CN(C)[C@H](C)[C@@H](O)[C@]1(C)O` [Example C-49], the “IL-1ß OS of LPS” value in the assay with IL-1β worked out at 6 µM. Besides, the values for the IC50 with IL-6 and with TNF-α were 136 µM and 181 µM, respectively.

Regarding `CC[C@H]1OC(=O)[C@H](C)[C@@H](O)[C@H](C)[C@@H](O[C@@H]2O[C@H](C)C[C@H](N(C)C(=O)N3CCOc4ccccc43)[C@H]2Oc2ccccc2)[C@](C)(O)C[C@@H](C)CN(C)[C@H](C)[C@@H](O)[C@]1(C)O` [Example D-2], the “IL-1ß OS of LPS” value in the assay with IL-1β came out at 16 µM. Also, the IC50 worked out at 148 µM in the assay with IL-6 and 40 µM in the assay on TNF-α.

As to `CC[C@H]1OC(=O)[C@H](C)[C@@H](O)[C@H](C)[C@@H](O[C@@H]2O[C@H](C)C[C@H](N(C)C(=O)N3CCOc4ccccc43)[C@H]2Oc2ccccc2)[C@](C)(O)C[C@@H](C)CN[C@H](C)[C@@H](O)[C@]1(C)O` [Example D-3], in the assay on IL-1β, the “IL-1ß OS of LPS” value was found to be 16 µM. Moreover, the results for the IC50 with IL-6 and with TNF-α were 50 µM and 20 µM, respectively.

As for `CC[C@H]1OC(=O)[C@H](C)[C@@H](O[C@H]2C[C@@](C)(OC)[C@](O)(CNCC3CC3)[C@H](C)O2)[C@H](C)[C@@H](O[C@@H]2O[C@H](C)C[C@H](N(C)C)[C@H]2Oc2ccc(F)cc2)[C@](C)(O)C[C@@H](C)CN[C@H](C)[C@@H](O)[C@]1(C)O` [Example E-37], the “IL-1ß OS of LPS” value with IL-1β stood at 16 µM. Besides, the results for the IC50 with IL-6 and with TNF-α were 17 µM and 6 µM, respectively.

As to `CC[C@H]1OC(=O)[C@H](C)[C@@H](O[C@H]2C[C@@](C)(OC)[C@](O)(CNn3ccnc3)[C@H](C)O2)[C@H](C)[C@@H](O[C@@H]2O[C@H](C)C[C@H](N(C)C)[C@H]2Oc2ccccc2)[C@](C)(O)C[C@@H](C)CN[C@H](C)[C@@H](O)[C@]1(C)O` [Example E-40], the “IL-1ß OS of LPS” value in the assay with IL-1β is 40 µM. The values for the IC50 with IL-6 and with TNF-α were 55 µM and 11 µM, respectively.

For the compound `CCCNC[C@]1(O)[C@H](C)O[C@@H](O[C@H]2[C@H](C)[C@@H](O[C@@H]3O[C@H](C)C[C@H](N(C)C)[C@H]3Oc3ccc4ncccc4c3)[C@](C)(O)C[C@@H](C)CN[C@H](C)[C@@H](O)[C@](C)(O)[C@@H](CC)OC(=O)[C@@H]2C)C[C@@]1(C)OC` [Example E-69], the “IL-1ß OS of LPS” value in the assay with IL-1β was determined as 16 µM. Besides, the 50% inhibitory concentration (IC50) with IL-6 is 68 µM; in the assay with TNF-α, 19 µM.

As for `CCCNC[C@]1(O)[C@H](C)O[C@@H](O[C@H]2[C@H](C)[C@@H](O[C@@H]3O[C@H](C)C[C@H](NC)[C@H]3Oc3ccccc3OCC)[C@](C)(O)C[C@@H](C)CN[C@H](C)[C@@H](O)[C@](C)(O)[C@@H](CC)OC(=O)[C@@H]2C)C[C@@]1(C)OC` [Example E-78], the “IL-1ß OS of LPS” value with IL-1β was found to be 17 µM. Further, the IC50 in the assay on IL-6 was determined as 54 µM; in the assay on TNF-α, 16 µM.

`CCCNC[C@]1(O)[C@H](C)O[C@@H](O[C@H]2[C@H](C)[C@@H](O[C@@H]3O[C@H](C)C[C@H](NC)[C@H]3Oc3ccc(S(C)(=O)=O)cc3)[C@](C)(O)C[C@@H](C)CN[C@H](C)[C@@H](O)[C@](C)(O)[C@@H](CC)OC(=O)[C@@H]2C)C[C@@]1(C)OC` [Example E-80]: in the assay with IL-1β, the “IL-1ß OS of LPS” value is over 250 µM. Moreover, the half-inhibitory concentration (IC50) in the assay with IL-6 stood at 65 µM; with TNF-α it was 45 µM.

For the compound `CCCNC[C@]1(O)[C@H](C)O[C@@H](O[C@H]2[C@H](C)[C@@H](O[C@@H]3O[C@H](C)C[C@H](NC)[C@H]3Oc3ccc(C(N)=O)cc3)[C@](C)(O)C[C@@H](C)CN[C@H](C)[C@@H](O)[C@](C)(O)[C@@H](CC)OC(=O)[C@@H]2C)C[C@@]1(C)OC` [Example E-110], in the assay on IL-1β, the “IL-1ß OS of LPS” value was over 500 µM. The half-inhibitory concentration (IC50) with IL-6 was 175 µM; in the assay on TNF-α, 125 µM.

Turning to `CC[C@H]1OC(=O)[C@H](C)[C@@H](O[C@H]2C[C@@](C)(OC)[C@](O)(CN(C)CCN(C)C)[C@H](C)O2)[C@H](C)[C@@H](O[C@@H]2O[C@H](C)C[C@H](N(C)C)[C@H]2Oc2ccc(F)cc2)[C@](C)(O)C[C@@H](C)CN[C@H](C)[C@@H](O)[C@]1(C)O` [Example E-113], the “IL-1ß OS of LPS” value in the assay on IL-1β is 40 µM. The IC50 with IL-6 came to 40 µM; with TNF-α, 17 µM.

Consider `CC[C@H]1OC(=O)[C@H](C)[C@@H](O[C@H]2C[C@@](C)(OC)[C@](O)(CNCCN(C)C)[C@H](C)O2)[C@H](C)[C@@H](O[C@@H]2O[C@H](C)C[C@H](N(C)C)[C@H]2Oc2ccc(F)cc2)[C@](C)(O)C[C@@H](C)CN[C@H](C)[C@@H](O)[C@]1(C)O` [Example E-114], for which, in the assay on IL-1β, the “IL-1ß OS of LPS” value came to 40 µM. The IC50 in the assay with IL-6 came out at 52 µM; in the assay with TNF-α, 13 µM.

In the case of `CC[C@H]1OC(=O)[C@H](C)[C@@H](O[C@H]2C[C@@](C)(OC)[C@](O)(CNCCOC)[C@H](C)O2)[C@H](C)[C@@H](O[C@@H]2O[C@H](C)C[C@H](N(C)C)[C@H]2Oc2ccc(F)cc2)[C@](C)(O)C[C@@H](C)CN[C@H](C)[C@@H](O)[C@]1(C)O` [Example E-116], the “IL-1ß OS of LPS” value in the assay on IL-1β was found to be 16 µM. Further, the IC50 with IL-6 is 10 µM; in the assay on TNF-α, 5 µM.

The values above are taken from patent US12390441B2, “Immunomodulating o-het/aryl azalides” (Zoetis Services LLC, priority 2020, dated 2025).
